Patent US20180312493A1, “Antibiotic Compounds, Pharmaceutical Formulations Thereof And Methods And Uses Therefor” (Simon Fraser University, priority 2015, published 2018)
≈ marks a conversion by molar mass, not a printed value. Like-named read-outs stand apart in the source and are kept apart here.

Legend:
VRE#2 (2010A) = assay: In vitro susceptibility, broth microdilution (MIC); format: cell-based, vancomycin resistant Enterococci; settings: VRE#2 (2010A); read-out: Antimicrobial activity (MIC) VRE#2
Summary of the method: (§1)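 MIC determined by CLSI 2-fold broth microdilution in cation-adjusted Mueller–Hinton broth at ~2.5×10^5 CFU/ml, final compound 0.031–64 μg/ml, 18–24 h at 37 °C. MIC is the lowest concentration giving complete growth inhibition by background-corrected OD600 versus compound-free wells; duplicate or triplicate wells, replicated at least twice.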

MRSA MW2 (USA400) = assay: In vitro susceptibility, broth microdilution (MIC); format: cell-based, methicillin resistant S. aureus; settings: Staphylococcus aureus; MRSA MW2 (USA400); read-out: Antimicrobial activity (MIC) MSRA USA400
Summary of the method: as §1

MRSA Pyk = target: T1, MRSA Pyk (Staphylococcus aureus, UniProt Q6GG09); assay: MRSA pyruvate kinase (PK) activity, continuous LDH-coupled assay; format: biochemical, methicillin resistant S. aureus (MRSA252)
T1 construct: made in house; host or cells: E. coli BL-21 (DE3)
Summary of the method: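 His-tagged MRSA PK (strain Sanger 252) and human PK isoforms expressed in E. coli BL-21 (DE3) and Ni-NTA purified, used at 15 nM in an LDH-coupled assay following NADH oxidation at 340 nm, 30° C, up to 5 min, ≤1% DMSO. IC50 from four-parameter variable-slope fit; Ki with PEP 2-20 mM, ADP fixed 2 mM, inhibitor 0-400 nM.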

S. aureus (ATCC29213) = assay: In vitro susceptibility, broth microdilution (MIC); format: cell-based; settings: Staphylococcus aureus; S. aureus ATCC29213; 18-24 h, 37 C; read-out: Antimicrobial activity (MIC) S. aureus ATCC29213
Summary of the method: (§2)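 CLSI 2-fold serial broth microdilution; K. pneumoniae C238 grown in L-broth, S. aureus ATCC 29213 in Mueller Hinton broth, plates incubated 18–24 h at 37 °C. MIC taken as lowest concentration giving complete growth inhibition by OD600 versus compound-free wells, background-subtracted.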

K. pneumoniae (C238) = assay: In vitro susceptibility, broth microdilution (MIC); format: cell-based; settings: Klebsiella pneumoniae, read-out: Antimicrobial activity (MIC) K. pneumoniae
Summary of the method: as §2

[1] = tested on: A. baumannii (ATCC 17978); assay: In vitro susceptibility, broth microdilution (MIC); format: cell-based; settings: Acinetobacter baumannii, ATCC17978; A. baumannii ATCC 17978 (values marked *); read-out: Antimicrobial activity (MIC) A. baumannii
Summary of the method: as §1

[2] = tested on: A. baumannii (ATCC 19606); assay: In vitro susceptibility, broth microdilution (MIC); format: cell-based; settings: Acinetobacter baumannii, ATCC19606; A. baumannii ATCC 19606 (values without asterisk); read-out: Antimicrobial activity (MIC) A. baumannii
Summary of the method: as §1

MRSA (ATCC BAA-1762) = assay: In vitro susceptibility, broth microdilution (MIC); format: cell-based, methicillin resistant S. aureus; settings: Staphylococcus aureus; MRSA ATCC BAA-1762; read-out: Antimicrobial activity (MIC) MRSA ATCC BAA1762
Summary of the method: as §1

T1 sequence (Q6GG09 whole entry): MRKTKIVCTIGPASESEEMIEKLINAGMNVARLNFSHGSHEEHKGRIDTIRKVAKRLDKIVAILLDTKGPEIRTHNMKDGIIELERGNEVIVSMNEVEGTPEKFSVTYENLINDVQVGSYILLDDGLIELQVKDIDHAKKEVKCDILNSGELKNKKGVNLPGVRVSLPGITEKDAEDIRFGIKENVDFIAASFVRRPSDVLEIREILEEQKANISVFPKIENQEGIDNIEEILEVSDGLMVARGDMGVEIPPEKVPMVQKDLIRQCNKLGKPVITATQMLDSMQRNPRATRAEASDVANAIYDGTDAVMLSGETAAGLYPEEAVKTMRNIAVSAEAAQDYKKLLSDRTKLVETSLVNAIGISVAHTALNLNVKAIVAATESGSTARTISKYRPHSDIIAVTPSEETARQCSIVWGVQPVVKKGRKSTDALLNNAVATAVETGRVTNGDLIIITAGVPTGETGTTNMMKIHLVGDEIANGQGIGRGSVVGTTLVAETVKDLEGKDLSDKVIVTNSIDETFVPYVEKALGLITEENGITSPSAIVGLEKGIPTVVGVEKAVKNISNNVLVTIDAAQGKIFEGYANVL

| SMILES | MIC (VRE#2 (2010A)) [µg/mL] | MIC (MRSA MW2 (USA400)) [µg/mL] | IC50 (MRSA Pyk) [nM] | MIC (S. aureus (ATCC29213)) [µg/mL] | MIC (K. pneumoniae (C238); K. pneumoniae (C238)) [µg/mL] | MIC (K. pneumoniae (C238)) [µg/mL] | MIC [1] [µg/mL] | MIC [2] [µg/mL] | MIC (MRSA (ATCC BAA-1762)) [µg/mL] |
| --- | --- | --- | --- | --- | --- | --- | --- | --- | --- |
| O=C(CO)Nc1c(/C=C/c2ccc(Cl)cc2)[nH]c2cc(Br)ccc12 [Compound 95, (E)-N-(6-bromo-2-(4-chlorostyryl)-1H-indol-3-yl)-2-hydroxyacetamide] | 64 (≈ 158 µM) | 64 (≈ 158 µM) | 100 to 1000 | 32 (≈ 78.9 µM) | 64 (≈ 158 µM) | – | – | – | – |
| CN1CCN(CCCNC(=O)c2c(/C=C/c3ccc(Cl)cc3)[nH]c3cc(Br)ccc23)CC1 [Compound 43, (E)-6-Bromo-2-(4-chlorostyryl)-N-(3-(4-methylpiperazin-1-yl)propyl)-1 H-indole-3-carboxamide] | 16 (≈ 31 µM) | 32 (≈ 62 µM) | < 100 | 32 (≈ 62 µM) | 32 (≈ 62 µM) | – | – | – | – |
| CC(=O)Nc1c(CCc2ccc(Cl)cc2)[nH]c2cc(Br)ccc12 [Compound 96, N-(6-Bromo-2-(4-chlorophenethyl)-1H-indol-3-yl)acetamide] | > 64 | > 64 | > 1000 | 64 (≈ 163 µM) | > 64 | – | – | – | – |
| CC(=O)Nc1c(/C=C/c2ccc(Cl)cc2)[nH]c2cc(Br)ccc12 [Compound 94, (E)-N-(6-bromo-2-(4-chlorostyryl)-1H-indol-3-yl)acetamide] | > 64 | > 64 | 100 to 1000 | 32 (≈ 82.1 µM) | > 64 | – | – | – | – |
| O=C(Nc1c(/C=C/c2ccc(Cl)cc2)[nH]c2cc(Br)ccc12)C(F)(F)F [Compound 93, (E)-N-(6-bromo-2-(4-chlorostyryl)-1H-indol-3-yl)-2,2,2-trifluoroacetamide] | 64 (≈ 144 µM) | > 64 | < 100 | 32 (≈ 72.1 µM) | – | > 64 | – | – | – |
| CC(C)c1nc2c(cc1-c1ccc(Cl)cc1)[nH]c1cc(Br)ccc12 [Compound 114, 7-bromo-3-(4-chlorophenyl)-2-isopropyl-5H-pyrido[3,2-b]indole] | 4 (≈ 10 µM) | 8 (≈ 20 µM) | 100 to 1000 | 32 (≈ 80.1 µM) | 8 (≈ 20 µM) | – | – | – | – |
| CN(C)CCNC(=O)CCCC(=O)c1c(-c2cc3cc(Cl)ccc3[nH]2)[nH]c2cc(Br)ccc12 [Compound 107, 5-(6-bromo-5′-chloro-1H,1′H-[2,2′-biindol]-3-yl)-N-(2-(dimethylamino)ethyl)-5-oxopentanamide] | 4 (≈ 7.55 µM) | 4 (≈ 7.55 µM) | < 100 | 4 (≈ 7.55 µM) | 4 (≈ 7.55 µM) | – | – | – | – |
| CN1CCN(CCNC(=O)c2c(-c3cc4cc(Cl)ccc4[nH]3)[nH]c3cc(Br)ccc23)CC1 [Compound 72, 6-Bromo-5′-chloro-N-(2-(4-methylpiperazin-1-yl)ethyl)-1H,1′H-[2,2′-biindole]-3-carboxamide] | 8 (≈ 15.5 µM) | – | < 100 | 8 (≈ 15.5 µM) | 8 (≈ 15.5 µM) | – | > 64 | – | – |
| CN1CCN(CCNC(=O)CCCC(=O)c2c(-c3cc4cc(Cl)ccc4[nH]3)[nH]c3cc(Br)ccc23)CC1 [Compound 106, 5-(6-bromo-5′-chloro-1H,1′H-[2,2′-biindol]-3-yl)-N-(2-(4-methylpiperazin-1-yl)ethyl)-5-oxopentanamide] | 8 (≈ 13.7 µM) | 8 (≈ 13.7 µM) | < 100 | 8 (≈ 13.7 µM) | 8 (≈ 13.7 µM) | – | – | > 64 | – |
| O=C(O)CCNC(=O)c1c(-c2cc3cc(Cl)ccc3[nH]2)[nH]c2cc(Br)ccc12 [Compound 205, 3-(6-Bromo-5′-chloro-1H,1′H-[2,2′-biindole]-3-carboxamido)propanoic Acid] | – | 32 (≈ 69.5 µM) | < 100 | 32 (≈ 69.5 µM) | – | – | > 64 | – | 64 (≈ 139 µM) |
| Clc1ccc(-c2cc3[nH]c4cc(Br)ccc4c3nc2-c2ccccc2)cc1 [Compound 112, 7-bromo-3-(4-chlorophenyl)-2-phenyl-5H-pyrido[3,2-b]indole] | > 64 | – | 100 to 1000 | 32 (≈ 73.8 µM) | > 64 | – | > 64 | – | – |
| O=C(NCCC1CCC(O)CC1)c1c(/C=C/c2ccc(Cl)cc2)[nH]c2cc(Br)ccc12 (stereo not shown) [Compound 41, (E)-6-Bromo-2-(4-chlorostyryl)-N-(2-(4-hydroxycyclohexyl)ethyl)-1H-indole-3-carboxamide] | > 64 | > 64 | < 100 | > 64 | > 64 | – | – | – | – |
